Data from patent US11919901B2 (Syndax Pharmaceuticals, Inc., priority 2021, dated 2024).
pEC50, pKi: −log10 of the molar value.

Target: Menin-MLL (Homo sapiens (Human), UniProt O00255)
Assay: Determination of binding constants (Ki) to Menin-MLL (HTRF)
Conditions: HTRF, 0.25 nM H-FL-Menin, 3.2 nM FITC-MLL-4-43, 24 hr incubation; for pKi: read-out: Menin-MLL Ki HTRF Assay: Ki

Chain of Menin-MLL (O00255 whole entry): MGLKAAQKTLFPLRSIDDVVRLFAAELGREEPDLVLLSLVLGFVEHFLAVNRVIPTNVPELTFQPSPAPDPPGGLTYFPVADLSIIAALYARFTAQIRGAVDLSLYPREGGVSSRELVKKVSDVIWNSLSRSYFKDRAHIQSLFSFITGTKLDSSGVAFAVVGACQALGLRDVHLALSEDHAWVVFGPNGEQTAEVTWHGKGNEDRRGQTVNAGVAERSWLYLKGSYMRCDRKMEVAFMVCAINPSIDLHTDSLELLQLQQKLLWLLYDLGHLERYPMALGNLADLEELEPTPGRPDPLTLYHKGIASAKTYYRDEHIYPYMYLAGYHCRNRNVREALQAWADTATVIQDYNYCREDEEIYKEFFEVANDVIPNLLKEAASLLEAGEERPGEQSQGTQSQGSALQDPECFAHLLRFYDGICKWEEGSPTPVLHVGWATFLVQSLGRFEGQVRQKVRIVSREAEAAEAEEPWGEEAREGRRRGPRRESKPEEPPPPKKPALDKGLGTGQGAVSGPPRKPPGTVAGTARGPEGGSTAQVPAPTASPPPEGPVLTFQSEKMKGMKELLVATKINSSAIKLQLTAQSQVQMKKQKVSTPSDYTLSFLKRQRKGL

Row | Structure (SMILES) | pEC50 | pKi
1 | CCN(C(=O)c1cc(F)ccc1Oc1cncnc1N1CC2(CCN(C[C@@H]3CC[C@@H](NS(=O)(=O)CC4CC4)CO3)CC2)C1)C(C)C [Compound 7, 2-((4-(7-(((2S,5R)-5-((cyclopropylmethyl)sulfonamido)tetrahydro-2H-pyran-2-yl)methyl)-2,7-diazaspiro[3.5]nonan-2-yl)pyrimidin-5-yl)oxy)-N-ethyl-5-fluoro-N-isopropylbenzamide] | > 7.30 | > 9.00
2 | CCS(=O)(=O)N[C@@H]1CC[C@@H](CN2CCC3(CC2)CN(c2ncncc2Oc2ccc(F)cc2C(=O)N(CCOC)C(C)C)C3)OC1 [Compound 35, 2-((4-(7-(((2S,5R)-5-(ethylsulfonamido)tetrahydro-2H-pyran-2-yl)methyl)-2,7-diazaspiro[3.5]nonan-2-yl)pyrimidin-5-yl)oxy)-5-fluoro-N-isopropyl-N-(2-methoxyethyl)benzamide] | > 7.30 | > 9.00
3 | CC(C)N(C(=O)c1cc(F)ccc1Oc1cncnc1N1CC2(CCN(C[C@@H]3CC[C@@H](NS(=O)(=O)N4CCC4)CO3)CC2)C1)[C@@H]1CCOC1 [Compound 168, 2-((4-(7-(((2S,5R)-5-(Azetidine-1-sulfonamido)tetrahydro-2H-pyran-2-yl)methyl)-2,7-diazaspiro[3.5]nonan-2-yl)pyrimidin-5-yl)oxy)-5-fluoro-N-isopropyl-N-((R)-tetrahydrofuran-3-yl)benzamide] | – | > 9.00
4 | CCN(C(=O)c1cc(F)ccc1Oc1cncnc1N1CC2(CCN(C[C@@H]3CC[C@@H](NS(=O)(=O)C4COC4)CO3)CC2)C1)C(C)C [Compound 5, N-ethyl-5-fluoro-N-isopropyl-2-((4-(7-(((2S,5R)-5-(oxetane-3-sulfonamido)tetrahydro-2H-pyran-2-yl)methyl)-2,7-diazaspiro[3.5]nonan-2-yl)pyrimidin-5-yl)oxy)benzamide] | > 7.30 | > 9.00
5 | C[C@@H]1COC[C@@H](C)N1C(=O)c1cc(F)ccc1Oc1cncnc1N1CC2(CCN(C[C@@H]3CC[C@@H](NS(C)(=O)=O)CO3)CC2)C1 [Compound 28, N-((3R,6S)-6-((2-(5-(2-((3R,5R)-3,5-dimethylmorpholine-4-carbonyl)-4-fluorophenoxy)pyrimidin-4-yl)-2,7-diazaspiro[3.5]nonan-7-yl)methyl)tetrahydro-2H-pyran-3-yl)methanesulfonamide] | > 7.30 | > 9.00
6 | CC(C)N(C(=O)c1cc(F)ccc1Oc1cncnc1N1CC2(CCN(C[C@@H]3CC[C@@H](NS(C)(=O)=O)CO3)CC2)C1)[C@H]1CCOC1 [Compound 173, 5-Fluoro-N-isopropyl-2-((4-(7-(((2S,5R)-5-(methylsulfonamido)tetrahydro-2H-pyran-2-yl)methyl)-2,7-diazaspiro[3.5]nonan-2-yl)pyrimidin-5-yl)oxy)-N-((S)-tetrahydrofuran-3-yl)benzamide] | – | > 9.00
7 | CC(C)N(C(=O)c1cc(F)ccc1Oc1cncnc1N1CC2(CCN(C[C@@H]3CC[C@@H](NS(=O)(=O)C4CC4)CO3)CC2)C1)C1COC1 [Compound 247, 2-((4-(7-(((2S,5R)-5-(Cyclopropanesulfonamido)tetrahydro-2H-pyran-2-yl)methyl)-2,7-diazaspiro[3.5]nonan-2-yl)pyrimidin-5-yl)oxy)-5-fluoro-N-isopropyl-N-(oxetan-3-yl)benzamide] | > 7.30 | > 9.00
8 | CCN(C(=O)c1cc(F)ccc1Oc1cncnc1N1CC2(CCN(C[C@@H]3CC[C@@H](NS(N)(=O)=O)CO3)CC2)C1)C(C)C [Compound 73, N-Ethyl-5-fluoro-N-isopropyl-2-((4-(7-(((2S,5R)-5-(sulfamoylamino)tetrahydro-2H-pyran-2-yl)methyl)-2,7-diazaspiro[3.5]nonan-2-yl)pyrimidin-5-yl)oxy)benzamide] | – | > 9.00
